From ChEMBL document CHEMBL1127972 (Bioorg Med Chem Lett, 1994)
Substitutions are numbered along the chain they refer to.

Experiments:
[1] = target: T1, Muscarinic acetylcholine receptor M1 (Rattus norvegicus, UniProt P08482); assay: In vitro binding affinity towards Muscarinic acetylcholine receptor M1 by the displacement of [3H]pirenzepine in rat cerebral cortical membranes; format: cell membranes, Membrane
T1 sequence (P08482 whole entry): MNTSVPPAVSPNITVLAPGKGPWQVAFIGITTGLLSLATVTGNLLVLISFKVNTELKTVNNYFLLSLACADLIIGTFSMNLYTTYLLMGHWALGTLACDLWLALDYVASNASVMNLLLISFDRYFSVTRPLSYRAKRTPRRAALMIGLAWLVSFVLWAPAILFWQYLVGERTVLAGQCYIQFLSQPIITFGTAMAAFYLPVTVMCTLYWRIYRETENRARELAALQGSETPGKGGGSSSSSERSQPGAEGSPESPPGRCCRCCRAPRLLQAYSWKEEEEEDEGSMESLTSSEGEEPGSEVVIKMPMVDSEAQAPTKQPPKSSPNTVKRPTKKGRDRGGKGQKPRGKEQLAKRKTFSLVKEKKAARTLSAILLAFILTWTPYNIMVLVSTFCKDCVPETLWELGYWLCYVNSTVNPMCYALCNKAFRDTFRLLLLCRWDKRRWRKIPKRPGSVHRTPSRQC

[2] = target: T1, Muscarinic acetylcholine receptor M1; assay: In vitro binding affinity towards Muscarinic acetylcholine receptor M1 by the displacement of [3H]oxotremorine-M in rat brain membranes; format: cell membranes
[3] = target: T2, Muscarinic acetylcholine receptor M1 (Homo sapiens) (UniProt P11229); assay: Percent stimulation of phospholipid hydrolysis in BHK cells transfected with human Muscarinic acetylcholine receptor M1 compared to maximal stimulation of carbachol at a dose of 100 uM; format: functional, cell-based
T2 sequence (whole entry): T1 sequence (P08482 whole entry) with V5A, S254T, S309P, K320R, G337A, V413I

SMILES	IC50 [1]	IC50 [2]	Stimulation [3]
CCCCCOc1nsnc1C1=CCC(C)N(C)C1 (stereo not drawn)	5 nM	9 nM	18%
CCCCOc1nsnc1C1=CCC(C)N(C)C1 (stereo not drawn)	8 nM	9 nM	9%
CCCCCCOc1nsnc1C1=C(C)CCN(C)C1	112 nM	100 nM	
CCCCCCOc1nsnc1C1=CCCN(C)C1C (stereo not drawn)	48 nM	83 nM	
C=CCCCOc1nsnc1C1=CCC(C)N(C)C1 (stereo not drawn)	8 nM	10 nM	12%
CCCOc1nsnc1C1=CCCN(C)C1		2 nM	25%
COc1nsnc1C1=CCCN(C)C1			7%
CCCCCCOc1nsnc1C1=CC2(C)CCCCC2(C)N(C)C1 (stereo not drawn)	1230 nM	1000 nM	
COc1nsnc1C1=CC(C)CN(C)C1 (stereo not drawn)	580 nM	600 nM	
CCOc1nsnc1C1=CCC(C)N(C)C1 (stereo not drawn)	24 nM	11 nM	10%
CCCCCCOc1nsnc1C1=CCC(C)N(C)C1 (stereo not drawn)	5 nM	6 nM	27%
COc1nsnc1C1=C(C)CCN(C)C1	1000 nM	1000 nM	
CCC#CCCOc1nsnc1C1=CCC(C)N(C)C1 (stereo not drawn)	5 nM	6 nM	12%
CCCCCCOc1nsnc1C1=CC(C)CN(C)C1 (stereo not drawn)	7 nM	14 nM	12%
CCCOc1nsnc1C1=CC(C)CN(C)C1 (stereo not drawn)	15 nM	17 nM	6%
CCCCCCOc1nsnc1C1=CCCN(C)C1			70%
